In ChEMBL document CHEMBL1201862, “PubChem BioAssay data set” (2004):
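Grown in 96-well plates, cells were treated for 48 hours with each compound at five concentrations. Insufficient inhibition: endpoint recorded as highest concentration tested. The concentration for 50% growth inhibition is given as GI50.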 Calls of active or inactive are those of the source. No stated cut-off is given here; in the data, active = GI50 up to about 1.1 µM and inactive = higher.

Assays:
Experiment in all cases: NCI anticancer screen, dose series, 48 h
CCRF-CEM = test system: CCRF-CEM
UACC-257 = test system: UACC-257
M19-MEL = test system: M19-MEL
SF-539 = test system: SF-539
786-0 = test system: 786-0
MCF7 = test system: MCF7
HT-29 = test system: HT-29
SR = test system: SR
KM12 = test system: KM12
KM-20L2 = test system: KM-20L2
M14 = test system: M14
OVCAR-8 = test system: OVCAR-8
LXFL 529 = test system: LXFL 529
NCI-H460 = test system: NCI-H460
NCI-H522 = test system: NCI-H522
MOLT-4 = test system: MOLT-4
SNB-78 = test system: SNB-78
XF498 = test system: XF498
SW-620 = test system: SW-620
DMS-114 = test system: DMS-114
DMS-273 = test system: DMS-273
SK-MEL-28 = test system: SK-MEL-28
MDA-N = test system: MDA-N
A549 = test system: A549
NCI-H226 = test system: NCI-H226
HOP-18 = test system: HOP-18
Malme-3M = test system: Malme-3M
UACC-62 = test system: UACC-62
HL-60 = test system: HL-60
OVCAR-3 = test system: OVCAR-3
DLD-1 = test system: DLD-1
HCT-116 = test system: HCT-116
RPMI-8226 = test system: RPMI-8226
NCI-H23 = test system: NCI-H23
HOP-62 = test system: HOP-62
SF-295 = test system: SF-295
HCC 2998 = test system: HCC 2998
EKVX = test system: EKVX
OVCAR-5 = test system: OVCAR-5
SK-OV-3 = test system: SK-OV-3
ACHN = test system: ACHN
HOP-92 = test system: HOP-92
HCT-15 = test system: HCT-15
TK-10 = test system: TK-10
U-251 = test system: U-251
UO-31 = test system: UO-31
A498 = test system: A498
RXF 393 = test system: RXF 393
IGROV-1 = test system: IGROV-1
SF-268 = test system: SF-268
COLO 205 = test system: COLO 205
SNB-19 = test system: SNB-19
SK-MEL-2 = test system: SK-MEL-2
SNB-75 = test system: SNB-75
SK-MEL-5 = test system: SK-MEL-5
OVCAR-4 = test system: OVCAR-4
SN12C = test system: SN12C
K562 = test system: K562
CAKI-1 = test system: CAKI-1

COc1ccc(/C=C\c2cc(OC)c(OC)c(OC)c2)cc1OC(=O)C(N)CCC(=O)O (stereo not given)
GI50 (CCRF-CEM): 0.000117 µM (active) | GI50 (UACC-257): 0.000465 µM (active) | GI50 (M19-MEL): < 1e-05 µM (active) | GI50 (SF-539): 8.22e-05 µM (active) | GI50 (786-0): 0.000764 µM (active) | GI50 (MCF7): 0.00229 µM (active) | GI50 (HT-29): 1.43 µM (inactive) | GI50 (SR): 0.000208 µM (active) | GI50 (KM12): 0.000131 µM (active) | GI50 (KM-20L2): 0.00252 µM (active) | GI50 (M14): 0.00016 µM (active) | GI50 (OVCAR-8): 0.000143 µM (active) | GI50 (LXFL 529): < 1e-05 µM (active) | GI50 (NCI-H460): 0.000133 µM (active) | GI50 (NCI-H522): 8.51e-05 µM (active) | GI50 (MOLT-4): 0.000135 µM (active) | GI50 (SNB-78): < 1e-05 µM (active) | GI50 (XF498): < 1e-05 µM (active) | GI50 (SW-620): 0.00015 µM (active) | GI50 (DMS-114): < 1e-05 µM (active) | GI50 (DMS-273): < 1e-05 µM (active) | GI50 (SK-MEL-28): 0.000188 µM (active) | GI50 (MDA-N): 0.05 nM (active) | GI50 (A549): 0.000802 µM (active) | GI50 (NCI-H226): 0.000632 µM (active) | GI50 (HOP-18): 0.0764 µM (active) | GI50 (Malme-3M): 0.000105 µM (active) | GI50 (UACC-62): 8.02e-05 µM (active) | GI50 (HL-60): 7.5e-05 µM (active) | GI50 (OVCAR-3): 0.00011 µM (active) | GI50 (DLD-1): < 1e-05 µM (active) | GI50 (HCT-116): 0.00015 µM (active) | GI50 (RPMI-8226): 0.0001 µM (active) | GI50 (NCI-H23): 0.000114 µM (active)

CCCCCC(=O)Nc1nc(O)c2[nH]cnc2n1
GI50 (CCRF-CEM): > 100 µM (inactive) | GI50 (HOP-62): > 100 µM (inactive) | GI50 (SF-295): > 100 µM (inactive) | GI50 (UACC-257): > 100 µM (inactive) | GI50 (HCC 2998): > 100 µM (inactive) | GI50 (EKVX): > 100 µM (inactive) | GI50 (M19-MEL): > 100 µM (inactive) | GI50 (OVCAR-5): > 100 µM (inactive) | GI50 (SF-539): > 100 µM (inactive) | GI50 (SK-OV-3): > 100 µM (inactive) | GI50 (786-0): > 100 µM (inactive) | GI50 (ACHN): > 100 µM (inactive) | GI50 (HOP-92): > 100 µM (inactive) | GI50 (HT-29): > 100 µM (inactive) | GI50 (SR): > 100 µM (inactive) | GI50 (KM12): > 100 µM (inactive) | GI50 (HCT-15): > 100 µM | GI50 (KM-20L2): > 100 µM (inactive) | GI50 (M14): > 100 µM (inactive) | GI50 (OVCAR-8): > 100 µM (inactive) | GI50 (LXFL 529): > 100 µM (inactive) | GI50 (NCI-H460): > 100 µM (inactive) | GI50 (NCI-H522): 52.4 µM (inactive) | GI50 (TK-10): > 100 µM (inactive) | GI50 (U-251): > 100 µM (inactive) | GI50 (UO-31): > 100 µM (inactive) | GI50 (MOLT-4): > 100 µM (inactive) | GI50 (A498): > 100 µM (inactive) | GI50 (RXF 393): > 100 µM (inactive) | GI50 (SNB-78): > 100 µM (inactive) | GI50 (IGROV-1): > 100 µM (inactive) | GI50 (XF498): > 100 µM (inactive) | GI50 (SW-620): > 100 µM (inactive) | GI50 (SF-268): > 100 µM (inactive) | GI50 (DMS-114): > 100 µM (inactive) | GI50 (DMS-273): > 100 µM (inactive) | GI50 (COLO 205): > 100 µM (inactive) | GI50 (SNB-19): > 100 µM (inactive) | GI50 (A549): > 100 µM (inactive) | GI50 (SK-MEL-2): > 100 µM (inactive) | GI50 (SNB-75): > 100 µM (inactive) | GI50 (NCI-H226): > 100 µM (inactive) | GI50 (HOP-18): > 100 µM (inactive) | GI50 (Malme-3M): > 100 µM (inactive) | GI50 (SK-MEL-5): > 100 µM (inactive) | GI50 (UACC-62): > 100 µM (inactive) | GI50 (OVCAR-4): > 100 µM (inactive) | GI50 (HL-60): > 100 µM (inactive) | GI50 (SN12C): > 100 µM (inactive) | GI50 (OVCAR-3): > 100 µM (inactive) | GI50 (DLD-1): > 100 µM (inactive) | GI50 (K562): > 100 µM (inactive) | GI50 (CAKI-1): > 100 µM (inactive) | GI50 (HCT-116): > 100 µM (inactive) | GI50 (RPMI-8226): > 100 µM (inactive) | GI50 (NCI-H23): > 100 µM (inactive)
